Laboratory results published in PubChem BioAssay (NCI).
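A five-concentration, 48-hour dose response in 96-well plates underlies each endpoint, interpolated linearly between surrounding concentrations. TGI: total growth inhibition.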

How the values were obtained:
Test in all cases: inhibition of tumour cell growth, NCI panel, 48 h
SK-MEL-28 melanoma = test system: SK-MEL-28 melanoma
SW-620 colon = test system: SW-620 colon
M14 melanoma = test system: M14 melanoma
CCRF-CEM leukemia = test system: CCRF-CEM leukemia
DLD-1 colon = test system: DLD-1 colon
OVCAR-4 ovarian = test system: OVCAR-4 ovarian
OVCAR-3 ovarian = test system: OVCAR-3 ovarian
HOP-18 NSCLC = test system: HOP-18 NSCLC
HT29 colon = test system: HT29 colon
EKVX NSCLC = test system: EKVX NSCLC
NCI-H522 lung = test system: NCI-H522 lung
SF-539 CNS = test system: SF-539 CNS
LOX IMVI melanoma = test system: LOX IMVI melanoma
ACHN renal = test system: ACHN renal
NCI-H23 lung = test system: NCI-H23 lung
COLO 205 colon = test system: COLO 205 colon
K-562 leukemia = test system: K-562 leukemia
MALME-3M melanoma = test system: MALME-3M melanoma
HCC-2998 colon = test system: HCC-2998 colon
NCI-H460 lung = test system: NCI-H460 lung
DMS 114 small cell lung = test system: DMS 114 small cell lung
SK-MEL-5 melanoma = test system: SK-MEL-5 melanoma
RXF-631 renal = test system: RXF-631 renal
SN12C renal = test system: SN12C renal
DMS 273 small cell lung = test system: DMS 273 small cell lung
OVCAR-8 ovarian = test system: OVCAR-8 ovarian
SNB-19 CNS = test system: SNB-19 CNS
LXFL 529 NSCLC = test system: LXFL 529 NSCLC
HOP-62 NSCLC = test system: HOP-62 NSCLC
UACC-62 melanoma = test system: UACC-62 melanoma
HCT-15 colon = test system: HCT-15 colon
HCT-116 colon = test system: HCT-116 colon
SF-295 CNS = test system: SF-295 CNS
HOP-92 NSCLC = test system: HOP-92 NSCLC
A498 renal = test system: A498 renal
786-0 renal = test system: 786-0 renal
SK-OV-3 ovarian = test system: SK-OV-3 ovarian
SNB-78 CNS = test system: SNB-78 CNS
KM12 colon = test system: KM12 colon
M19-MEL melanoma = test system: M19-MEL melanoma
MOLT-4 leukemia = test system: MOLT-4 leukemia
OVCAR-5 ovarian = test system: OVCAR-5 ovarian
SK-MEL-2 melanoma = test system: SK-MEL-2 melanoma
A549 NSCLC = test system: A549 NSCLC
IGROV1 ovarian = test system: IGROV1 ovarian
XF 498 CNS = test system: XF 498 CNS
KM20L2 colon = test system: KM20L2 colon
UACC-257 melanoma = test system: UACC-257 melanoma
UO-31 renal = test system: UO-31 renal
TK-10 renal = test system: TK-10 renal
NCI-H226 lung = test system: NCI-H226 lung
RXF 393 renal = test system: RXF 393 renal
SF-268 CNS = test system: SF-268 CNS
SNB-75 CNS = test system: SNB-75 CNS
RPMI-8226 leukemia = test system: RPMI-8226 leukemia
U251 CNS = test system: U251 CNS
CAKI-1 renal = test system: CAKI-1 renal
HL-60(TB) leukemia = test system: HL-60(TB) leukemia
SR leukemia = test system: SR leukemia

CC(C)=CC1CCc2ccccc2N1S(=O)(=O)c1ccc(C)cc1 (stereo not drawn)
TGI (SK-MEL-28 melanoma): > 40.1 µM
TGI (SW-620 colon): > 100 µM
TGI (M14 melanoma): 7.38 µM
TGI (CCRF-CEM leukemia): > 100 µM
TGI (DLD-1 colon): > 100 µM
TGI (OVCAR-4 ovarian): > 31.6 µM
TGI (OVCAR-3 ovarian): 4.25 µM
TGI (HOP-18 NSCLC): > 100 µM
TGI (HT29 colon): 3.24 µM
TGI (EKVX NSCLC): > 100 µM
TGI (NCI-H522 lung): 5.77 µM
TGI (SF-539 CNS): 3.14 µM
TGI (LOX IMVI melanoma): 12.6 µM
TGI (ACHN renal): > 31.6 µM
TGI (NCI-H23 lung): 5.7 µM
TGI (COLO 205 colon): 5.4 µM
TGI (K-562 leukemia): > 100 µM
TGI (MALME-3M melanoma): 51.5 µM
TGI (HCC-2998 colon): 7.95 µM
TGI (NCI-H460 lung): 8.02 µM
TGI (DMS 114 small cell lung): 4.12 µM
TGI (SK-MEL-5 melanoma): 5.12 µM
TGI (RXF-631 renal): > 100 µM
TGI (SN12C renal): > 100 µM
TGI (DMS 273 small cell lung): 1.59 µM
TGI (OVCAR-8 ovarian): > 31.3 µM
TGI (SNB-19 CNS): > 100 µM
TGI (LXFL 529 NSCLC): > 47.2 µM
TGI (HOP-62 NSCLC): 14 µM
TGI (UACC-62 melanoma): 16.1 µM
TGI (HCT-15 colon): > 31.6 µM
TGI (HCT-116 colon): 6.69 µM
TGI (SF-295 CNS): > 21.4 µM
TGI (HOP-92 NSCLC): 7.61 µM
TGI (A498 renal): 6.98 µM
TGI (786-0 renal): 12.1 µM
TGI (SK-OV-3 ovarian): > 100 µM
TGI (SNB-78 CNS): > 100 µM
TGI (KM12 colon): 6.16 µM
TGI (M19-MEL melanoma): 13.7 µM
TGI (MOLT-4 leukemia): 10.3 µM
TGI (OVCAR-5 ovarian): > 31.6 µM
TGI (SK-MEL-2 melanoma): 7.12 µM
TGI (A549 NSCLC): 18.9 µM
TGI (IGROV1 ovarian): > 100 µM
TGI (XF 498 CNS): 26.8 µM
TGI (KM20L2 colon): 3.12 µM
TGI (UACC-257 melanoma): 23.6 µM
TGI (UO-31 renal): > 100 µM
TGI (TK-10 renal): > 31.6 µM
TGI (NCI-H226 lung): 6.05 µM
TGI (RXF 393 renal): 5.14 µM
TGI (SF-268 CNS): 85.8 µM
TGI (SNB-75 CNS): > 25.1 µM
TGI (RPMI-8226 leukemia): 5.07 µM
TGI (U251 CNS): 4.58 µM

CCCCCCC[C@@H](O)CC(=O)NC(CC(C)C)C(=O)NC(CCC(=O)O)C(=O)NC1C(=O)NC(C(C)C)C(=O)NC(CC(C)C)C(=O)NC(CO)C(=O)NC(CC(C)C)C(=O)NC(CO)C(=O)NC(C(C)CC)C(=O)OC1C (stereo partly drawn)
TGI (SK-MEL-28 melanoma): 30.6 µM
TGI (SW-620 colon): 28.8 µM
TGI (M14 melanoma): 20.9 µM
TGI (CCRF-CEM leukemia): 25.8 µM
TGI (DLD-1 colon): 3.04 µM
TGI (OVCAR-4 ovarian): 34.4 µM
TGI (OVCAR-3 ovarian): 31.1 µM
TGI (HOP-18 NSCLC): 24.9 µM
TGI (HT29 colon): 31 µM
TGI (NCI-H522 lung): 26.6 µM
TGI (SF-539 CNS): 4.77 µM
TGI (LOX IMVI melanoma): 31.2 µM
TGI (ACHN renal): 25.7 µM
TGI (NCI-H23 lung): 29.9 µM
TGI (COLO 205 colon): 2.93 µM
TGI (K-562 leukemia): 30.9 µM
TGI (MALME-3M melanoma): 17.6 µM
TGI (HCC-2998 colon): 28.6 µM
TGI (NCI-H460 lung): 11.3 µM
TGI (DMS 114 small cell lung): 33.1 µM
TGI (SK-MEL-5 melanoma): 29.9 µM
TGI (RXF-631 renal): 28.8 µM
TGI (SN12C renal): 29.5 µM
TGI (DMS 273 small cell lung): 28.1 µM
TGI (OVCAR-8 ovarian): 29.8 µM
TGI (SNB-19 CNS): 16.6 µM
TGI (LXFL 529 NSCLC): 25.8 µM
TGI (HOP-62 NSCLC): 24.4 µM
TGI (CAKI-1 renal): 37.6 µM
TGI (UACC-62 melanoma): 29.1 µM
TGI (HCT-15 colon): 4.42 µM
TGI (HCT-116 colon): 25.7 µM
TGI (SF-295 CNS): 22.2 µM
TGI (HOP-92 NSCLC): 18.7 µM
TGI (A498 renal): 31.6 µM
TGI (786-0 renal): 27.9 µM
TGI (HL-60(TB) leukemia): 37.2 µM
TGI (SK-OV-3 ovarian): 34.4 µM
TGI (SNB-78 CNS): 34.3 µM
TGI (KM12 colon): 26.6 µM
TGI (M19-MEL melanoma): 22.6 µM
TGI (MOLT-4 leukemia): 39.9 µM
TGI (OVCAR-5 ovarian): 31.8 µM
TGI (A549 NSCLC): 36.1 µM
TGI (IGROV1 ovarian): 31.6 µM
TGI (XF 498 CNS): 15.2 µM
TGI (KM20L2 colon): 30.5 µM
TGI (UACC-257 melanoma): 29 µM
TGI (UO-31 renal): 33.6 µM
TGI (TK-10 renal): 28.9 µM
TGI (SR leukemia): 35.3 µM
TGI (NCI-H226 lung): 34.2 µM
TGI (RXF 393 renal): 26 µM
TGI (SF-268 CNS): 30.5 µM
TGI (SNB-75 CNS): 18 µM
TGI (RPMI-8226 leukemia): 33.5 µM
TGI (U251 CNS): 20.9 µM
